According to US11541061B2, “Neuroblastoma treatment with taurolidine hydrolysis products” (CorMedix Inc., priority 2016, dated 2023):

Key:
[1] = mean pharmacokinetic parameters of taurinamide and taurultam (FIGS. 10, 11); conditions: in vivo; mean pharmacokinetic parameter, weight-based AUC
Procedure: FIG. 10 is a chart showing the mean pharmacokinetic parameters of taurinamide; and
FIG. 11 is a chart showing the mean pharmacokinetic parameters of taurultam.
The taurinamide is given with a dosage range of from 5 mg/kg to 280 mg/kg, with optimal range between 5 mg/kg and 60 mg/kg, from once daily through weekly, for an effective period of time based on individual patient response.
The taurultam is given with a dosage range of from 5 mg/kg to 280 mg/kg, with optimal range between 5 mg/kg and 60 mg/kg, from once daily through weekly, for an effective period of time based on individual patient response.

[2] = 5 grams intravenously by 20 minute infusion; cited from earlier work
SK-N-AS tumors = assay: SK-N-AS neuroblastoma tumors implanted subcutaneously in mice (FIGS. 3-8); assay type: in vivo, CB57 SCID mice
healthy fibroblasts (BJ) = assay: in vitro cell viability of healthy fibroblasts (FIG. 2); assay type: cell-based; conditions: Fibroblast, normal fibroblasts
Text: (§1) The IC50 values are between 80-140 microMolar for neuroblastoma cell lines, and 200 microMolar for normal fibroblasts (see FIG. 2).

IMR5 tumors = assay: IMR5 neuroblastoma tumors implanted subcutaneously in mice (FIGS. 3-6); assay type: in vivo; conditions: IMR5 tumors implanted subcutaneously in CB57 SCID mice
Text: The efficacy observed with taurolidine treatment of IMR5 cell implants in vivo (FIGS. 3-6), despite IRM5's relatively high IC50 in vitro (FIG. 2), supports the conclusion that the hydrolysis products of taurolidine may have independent anti-neoplastic activity. […] Since it is known that taurolidine metabolizes to taurolidine hydrolysis products in vivo, this would support the conclusion that the hydrolysis products of taurolidine may have significant anti-neoplastic activity against neuroblastoma cells. In fact, it may be that the hydrolysis products of taurolidine have higher efficacy against neuroblastoma cells than taurolidine which has not been hydrolyzed.

neuroblastoma cell lines = assay: in vitro cell viability of neuroblastoma cell lines (FIG. 2); assay type: cell-based
Text: as §1

leukemia cell lines = assay: in vitro sensitivity of leukemia cell lines compared to healthy lymphocytes (FIG. 1); assay type: cell-based; conditions: leukemia cell lines vs healthy lymphocytes

AUC(0-inf) [1] [µg·h/mL]	Structure (SMILES)	concentration of taurolidine in healthy volunteers [2]	efficacy in tumors in vivo (SK-N-AS tumors; SK-N-AS tumors implanted subcutaneously in CB57 SCID mice)	overall survival (SK-N-AS tumors; mice implanted with SK-N-AS tumor, vs control)	tumor size (SK-N-AS tumors; mice with SK-N-AS cell line tumors, vs control)	IC50 (healthy fibroblasts (BJ)) [µM]	efficacy in tumors in vivo (IMR5 tumors)	sensitivity to decrease in viability compared to healthy fibroblasts (neuroblastoma cell lines; neuroblastoma cell lines vs healthy fibroblasts (BJ), in vitro)	IC50 (neuroblastoma cell lines; neuroblastoma cell lines, cell viability in vitro, FIG. 2) [µM]	concentration at which in vitro efficacy is seen (neuroblastoma cell lines; neuroblastoma cell lines, highest two concentrations tested, FIG. 2)	sensitivity compared to healthy lymphocytes (leukemia cell lines)
313	NCCS(N)(=O)=O [Taurinamide, taurinamide]	–	–	–	–	–	–	–	–	–	–
–	O=S1(=O)CCN(CN2CCS(=O)(=O)NC2)CN1 [taurolidine]	NO measurable concentration	measurable efficacy	not statistically different	Statistically significant decreases	200	efficacy	more sensitive	80 to 140	above 40 microMolar	more sensitive
